Experimental data as given in ChEMBL document CHEMBL1287692, “Structure-based design, synthesis and A-site rRNA co-crystal complexes of novel amphiphilic aminoglycoside antibiotics with new binding modes: a synergistic hydrophobic effect against resistant bacteria” (2010).
Converted amounts (≈) assume the structure as drawn.

How the values were obtained:
Assay type in all cases: functional
[1] = system: Escherichia coli; test: Antibacterial activity against vancomycin-, ciprofloxacin-, gentamicin-resistant Escherichia coli 1269620
[2] = system: Staphylococcus epidermidis; test: Antibacterial activity against oxymycin-, gentamicin-, levofloxacin-resistant Staphylococcus epidermidis 1269680
[3] = system: Staphylococcus aureus; test: Antibacterial activity against vancomycin-intermediate and ciprofloxacin-, gentamicin-resistant Staphylococcus aureus 1269618
[4] = system: Staphylococcus warneri; test: Antibacterial activity against Staphylococcus warneri 1269686
[5] = system: Staphylococcus epidermidis; test: Antibacterial activity against Staphylococcus epidermidis 1269663
[6] = system: Staphylococcus aureus; test: Antibacterial activity against vancomycin-intermediate and ciprofloxacin-, gentamicin-resistant Staphylococcus aureus 1269616
[7] = system: Escherichia coli; test: Antibacterial activity against vancomycin-, ciprofloxacin-, gentamicin-resistant Escherichia coli 1269621
[8] = system: Staphylococcus aureus; test: Antibacterial activity against Staphylococcus aureus ATCC […]
[9] = system: Escherichia coli; test: Antibacterial activity against Escherichia coli 0157:H07
[10] = system: Staphylococcus epidermidis; test: Antibacterial activity against oxymycin-, gentamicin-, levofloxacin-resistant Staphylococcus epidermidis 1269675
[11] = system: Staphylococcus aureus; test: Antibacterial activity against vancomycin-, ciprofloxacin-, gentamicin-resistant Staphylococcus aureus 1269617
[12] = system: Staphylococcus aureus; test: Antibacterial activity against vancomycin-, ciprofloxacin-, gentamicin-resistant Staphylococcus aureus 1269615
[13] = system: Staphylococcus aureus; test: Antibacterial activity against oxymycin-sensitive Staphylococcus aureus 1269669
[14] = system: Staphylococcus capitis; test: Antibacterial activity against Staphylococcus capitis 1269682
[15] = system: Escherichia coli; test: Antibacterial activity against vancomycin-, ciprofloxacin-, gentamicin-sensitive Escherichia coli 1269640
[16] = system: Escherichia coli; test: Antibacterial activity against vancomycin-, ciprofloxacin-, gentamicin-resistant Escherichia coli 1269653
[17] = system: Staphylococcus epidermidis; test: Antibacterial activity against oxymycin and gentamicin-resistant Staphylococcus epidermidis 1269677
[18] = system: Staphylococcus epidermidis; test: Antibacterial activity against oxymycin-, gentamicin-, levofloxacin-resistant Staphylococcus epidermidis 1269676
[19] = system: Escherichia coli; test: Antibacterial activity against vancomycin-, ciprofloxacin-, gentamicin-resistant Escherichia coli 1269652
[20] = system: Staphylococcus aureus; test: Antibacterial activity against oxymycin-sensitive Staphylococcus aureus 1269670
[21] = system: Staphylococcus aureus; test: Antibacterial activity against vancomycin-sensitive and oxymycin-, ciprofloxacin-, gentamicin-resistant Staphylococcus aureus 9269619
[22] = system: Escherichia coli; test: Antibacterial activity against Escherichia coli ATCC 25922
[23] = system: Staphylococcus aureus; test: Antibacterial activity against Staphylococcus aureus ATCC 13709

Row | Compound | MIC [1] [µg/mL] | MIC [2] [µg/mL] | MIC [3] [µg/mL] | MIC [4] [µg/mL] | MIC [5] [µg/mL] | MIC [6] [µg/mL] | MIC [7] [µg/mL] | MIC [8] [µg/mL] | MIC [9] [µg/mL] | MIC [10] [µg/mL] | MIC [11] [µg/mL] | MIC [12] [µg/mL] | MIC [13] [µg/mL] | MIC [14] [µg/mL] | MIC [15] [µg/mL] | MIC [16] [µg/mL] | MIC [17] [µg/mL] | MIC [18] [µg/mL] | MIC [22] [µg/mL] | MIC [23] [µg/mL] | further results
1 | CN[C@@H]1[C@@H](O)[C@@H](O[C@@H]2[C@@H](O)[C@H](O[C@H]3O[C@H]([C@@H](C)NC)CC[C@H]3N)[C@@H](N)C[C@H]2N)OC[C@]1(C)O [GENTAMICIN C1] | 64 (≈ 134 µM) | 64 (≈ 134 µM) | 64 (≈ 134 µM) | < 0.12 | < 0.12 | 64 (≈ 134 µM) | 64 (≈ 134 µM) | 0.5 (≈ 1.05 µM) | 0.5 (≈ 1.05 µM) | 32 (≈ 67 µM) | 32 (≈ 67 µM) | 32 (≈ 67 µM) | 0.25 (≈ 0.523 µM) | 0.12 (≈ 0.251 µM) | 4 (≈ 8.38 µM) | > 128 | 16 (≈ 33.5 µM) | 32 (≈ 67 µM) | 1 (≈ 2.09 µM) |  | MIC [19]: > 128 µg/mL; MIC [20]: 0.25 µg/mL (≈ 0.523 µM); MIC [21]: 128 µg/mL (≈ 268 µM)
2 | NCC[C@H](O)C(=O)N[C@@H]1C[C@H](N)[C@@H](O[C@H]2O[C@H](CO)[C@@H](O)[C@H](O)[C@H]2N)[C@H](O[C@@H]2O[C@H](CO)[C@@H](O[C@H]3O[C@@H](CN)[C@@H](O)[C@H](O)[C@H]3N)[C@H]2O)[C@H]1O | 8 (≈ 11.2 µM) | 1 (≈ 1.4 µM) | > 128 | 0.25 (≈ 0.349 µM) | 1 (≈ 1.4 µM) | > 128 | 8 (≈ 11.2 µM) | 4 (≈ 5.58 µM) | 8 (≈ 11.2 µM) | 64 (≈ 89.3 µM) | > 128 | > 128 | 4 (≈ 5.58 µM) | 0.5 (≈ 0.698 µM) | 16 (≈ 22.3 µM) | 8 (≈ 11.2 µM) | 16 (≈ 22.3 µM) | 0.5 (≈ 0.698 µM) | 8 (≈ 11.2 µM) | 1.3 (≈ 1.81 µM) | MIC [19]: 32 µg/mL (≈ 44.6 µM); MIC [20]: 4 µg/mL (≈ 5.58 µM); MIC [21]: > 128 µg/mL
3 | NCC[C@@H](O)C(=O)N[C@H]1C[C@H](N)[C@@H](O[C@H]2O[C@H](CO)[C@@H](O)[C@H](O)[C@H]2N)[C@@H](O[C@H]2O[C@H](CO)[C@@H](O[C@H]3O[C@@H](CN)[C@@H](O)[C@H](O)[C@H]3N)[C@H]2OCCNCCc2ccccc2)[C@H]1O | 1 (≈ 1.16 µM) | < 0.12 | 128 (≈ 148 µM) | < 0.12 | < 0.12 | 128 (≈ 148 µM) | 2 (≈ 2.31 µM) | 0.25 (≈ 0.289 µM) | 1 (≈ 1.16 µM) | 16 (≈ 18.5 µM) | 32 (≈ 37 µM) | 64 (≈ 74.1 µM) | < 0.12 | < 0.12 | 4 (≈ 4.63 µM) | 2 (≈ 2.31 µM) | < 0.12 | < 0.12 | 2 (≈ 2.31 µM) | 0.6 (≈ 0.694 µM) | MIC [19]: 8 µg/mL (≈ 9.26 µM); MIC [20]: < 0.12 µg/mL; MIC [21]: > 128 µg/mL
4 | NCC[C@H](O)C(=O)N[C@@H]1C[C@H](N)[C@@H](O[C@H]2O[C@H](CN)[C@@H](O)[C@H](O)[C@H]2N)[C@H](O[C@@H]2O[C@H](CO)[C@@H](O[C@H]3O[C@@H](CN)[C@@H](O)[C@H](O)[C@H]3N)[C@H]2O)[C@H]1O |  |  |  |  |  |  |  |  |  |  |  |  |  |  |  |  |  |  | 2.5 (≈ 3.49 µM) | 2.5 (≈ 3.49 µM) | 
5 | NC[C@@H]1O[C@H](O[C@H]2[C@@H](OCCNCCc3ccccc3)[C@H](O[C@@H]3[C@@H](O)[C@H](N)C[C@H](N)[C@H]3O[C@H]3O[C@H](CO)[C@@H](O)[C@H](O)[C@H]3N)O[C@@H]2CO)[C@H](N)[C@@H](O)[C@@H]1O |  |  |  |  |  |  |  |  |  |  |  |  |  |  |  |  |  |  | 3 (≈ 3.93 µM) | 0.3 (≈ 0.393 µM) | 
6 | NCC[C@H](O)C(=O)N[C@@H]1C[C@H](N)[C@@H](O[C@H]2O[C@H](CN)[C@@H](O)[C@H](O)[C@H]2O)[C@H](O)[C@H]1O[C@H]1O[C@H](CO)[C@@H](O)[C@H](N)[C@H]1O [AMIKACIN] | 2 (≈ 3.42 µM) | 8 (≈ 13.7 µM) | 16 (≈ 27.3 µM) | < 0.25 | 0.8 (≈ 1.37 µM) | 16 (≈ 27.3 µM) | 2 (≈ 3.42 µM) | 2 (≈ 3.42 µM) | 1 (≈ 1.71 µM) | 8 (≈ 13.7 µM) | 8 (≈ 13.7 µM) | 16 (≈ 27.3 µM) | 2 (≈ 3.42 µM) | 0.5 (≈ 0.854 µM) | 8 (≈ 13.7 µM) | 8 (≈ 13.7 µM) | 4 (≈ 6.83 µM) | 4 (≈ 6.83 µM) | 2 (≈ 3.42 µM) |  | MIC [19]: 64 µg/mL (≈ 109 µM); MIC [20]: 1 µg/mL (≈ 1.71 µM); MIC [21]: 16 µg/mL (≈ 27.3 µM)
7 | NCC[C@H](O)C(=O)N[C@@H]1C[C@H](N)[C@@H](O[C@H]2O[C@H](CO)CC[C@H]2N)[C@H](O[C@@H]2O[C@H](CO)[C@@H](O[C@H]3O[C@@H](CN)[C@@H](O)[C@H](O)[C@H]3N)[C@H]2OCCNCCc2ccccc2)[C@H]1O | 4 (≈ 4.81 µM) | < 0.12 | 0.5 (≈ 0.601 µM) | < 0.12 | < 0.12 | 0.5 (≈ 0.601 µM) | 4 (≈ 4.81 µM) | > 0.12 | 1 (≈ 1.2 µM) | < 0.12 | 0.25 (≈ 0.3 µM) | 0.25 (≈ 0.3 µM) | 0.25 (≈ 0.3 µM) | < 0.12 | 8 (≈ 9.62 µM) | 8 (≈ 9.62 µM) | < 0.12 | < 0.12 | 8 (≈ 9.62 µM) | 0.6 (≈ 0.721 µM) | MIC [19]: 16 µg/mL (≈ 19.2 µM); MIC [20]: 0.25 µg/mL (≈ 0.3 µM); MIC [21]: 1 µg/mL (≈ 1.2 µM)
8 | NC[C@@H]1O[C@H](O[C@H]2[C@@H](OCCNCCc3ccccc3)[C@@H](O[C@H]3[C@@H](O)[C@@H](N)C[C@@H](N)[C@H]3O[C@H]3O[C@H](CO)CC[C@H]3N)O[C@@H]2CO)[C@H](N)[C@@H](O)[C@@H]1O |  |  |  |  |  |  |  |  |  |  |  |  |  |  |  |  |  |  | 40 (≈ 54.7 µM) | 1 (≈ 1.37 µM) | 
9 | NC[C@@H]1O[C@H](O[C@H]2[C@@H](O)[C@H](O[C@@H]3[C@@H](O)[C@H](N)C[C@H](N)[C@H]3O[C@H]3O[C@H](CO)CC[C@H]3N)O[C@@H]2CO)[C@H](N)[C@@H](O)[C@@H]1O |  |  |  |  |  |  |  |  |  |  |  |  |  |  |  |  |  |  | 20 (≈ 34.3 µM) | 5 (≈ 8.57 µM) | 
10 | NC[C@@H]1O[C@H](O[C@H]2[C@@H](O)[C@H](O[C@@H]3[C@@H](O)[C@H](N)C[C@H](N)[C@H]3O[C@H]3O[C@H](CN)[C@@H](O)[C@H](O)[C@H]3N)O[C@@H]2CO)[C@H](N)[C@@H](O)[C@@H]1O [FRAMYCETIN] |  |  |  |  |  |  |  |  |  |  |  |  |  |  |  |  |  |  | 3 (≈ 4.88 µM) | 1 (≈ 1.63 µM) | 
11 | NC[C@@H]1O[C@H](O[C@H]2[C@@H](O)[C@H](O[C@@H]3[C@@H](O)[C@H](N)C[C@H](N)[C@H]3O[C@H]3O[C@H](CO)[C@@H](O)[C@H](O)[C@H]3N)O[C@@H]2CO)[C@H](N)[C@@H](O)[C@@H]1O [PAROMOMYCIN] |  |  |  |  |  |  |  |  |  |  |  |  |  |  |  |  |  |  | 3 (≈ 4.87 µM) | 1 (≈ 1.62 µM) | 
